Patent publication US11866720B2, “Transgenic or non-transgenic plants with mutated protoporphyrinogen oxidase having increased tolerance to herbicides” (priority 2013, dated 2024)
Several values for one entry are separate records, joined by “and”; a condition that tells them apart may be missing. Equal values may be shown once.

How the values were obtained:
[1] = test system: transgenic Arabidopsis thaliana plants expressing wildtype or mutated PPO; assay: Germination / growth inhibition assay of transgenic Arabidopsis T2 seeds in 48-well plates; conditions: growth inhibition seven to ten days after seeding
[2] = test system: transgenic soybean expressing mutated PPO; assay: Soybean segregating T1 individuals, greenhouse spray test (injury 0-9); assay type: in vivo, Glycine max; conditions: 1 week after treatment
[3] = transgenic Arabidopsis AMATU_PPO2_F420I
[4] = transgenic Arabidopsis AMATU_PPO2_F420L
[5] = transgenic Arabidopsis AMATU_PPO2_F420M
[6] = transgenic Arabidopsis AMATU_PPO2_R128A_F420I
[7] = transgenic Arabidopsis AMATU_PPO2_R128A_F420L
[8] = transgenic Arabidopsis AMATU_PPO2_R128L
[9] = transgenic Arabidopsis AMATU_PPO2_dG210
[10] = transgenic Arabidopsis AMATU_PPO2_dG210_R128L

Cc1nn(-c2cc(NS(C)(=O)=O)c(Cl)cc2Cl)c(=O)n1C(F)F [Sulfentrazon, sulfentrazone]
Relative tolerance rate as compared to a non-transgenic Arabidopsis plant (non-transgenic = 1.0) [1, 3]: 193
Relative tolerance rate as compared to a non-transgenic Arabidopsis plant (non-transgenic = 1.0) [1, 4]: 111
Relative tolerance rate as compared to a non-transgenic Arabidopsis plant (non-transgenic = 1.0) [1, 5]: 161
Relative tolerance rate as compared to a non-transgenic Arabidopsis plant (non-transgenic = 1.0) [1, 6]: 621
Relative tolerance rate as compared to a non-transgenic Arabidopsis plant (non-transgenic = 1.0) [1, 7]: 717
Relative tolerance rate as compared to a non-transgenic Arabidopsis plant (non-transgenic = 1.0) [1, 8]: 186
Relative tolerance rate as compared to a non-transgenic Arabidopsis plant (non-transgenic = 1.0) [1, 9]: 203
Relative tolerance rate as compared to a non-transgenic Arabidopsis plant (non-transgenic = 1.0) [1, 10]: 244
injury (0-9 point scale) ([2]; SDS10791 AmtuPPX2L R128A_F420I, Sulfentrazone 350 g ai/ha): 9 (5×) and 2 (2×) and 1
injury (0-9 point scale) ([2]; SDS10791 AmtuPPX2L R128A_F420I, Sulfentrazone 700 g ai/ha): 3 (3×) and 4 and 9 (3×) and 2
injury (0-9 point scale) ([2]; SDS-10642 AmtuPPX2L R128A_F420L, Sulfentrazone 350 g ai/ha): 1 (2×) and 0 (3×) and 3 (2×) and 2
injury (0-9 point scale) ([2]; SDS-10648 AmtuPPX2L R128A_F420I, Sulfentrazone 350 g ai/ha): 3 (3×) and 4 (2×) and 5 (2×) and 8
injury (0-9 point scale) ([2]; SDS-10648 AmtuPPX2L R128A_F420I, Sulfentrazone 700 g ai/ha): 3 (2×) and 2 and 9 and 4 (4×)
injury (0-9 point scale) ([2]; SDS-10652 AmtuPPX2L L397D_F420V, Sulfentrazone 350 g ai/ha): 9 and 6 and 3 (2×) and 5 (2×)
injury (0-9 point scale) ([2]; SDS-10787 AmtuPPX2L R128A_F420L, Sulfentrazone 350 g ai/ha): 5 (4×) and 4 and 6 and 9 (2×)
injury (0-9 point scale) ([2]; SDS-10985 AmtuPPX2L R128A_F420M, Sulfentrazone 350 g ai/ha): 3 (4×) and 8 and 4 and 1
injury (0-9 point scale) ([2]; SDS-10985 AmtuPPX2L R128A_F420M, Sulfentrazone 700 g ai/ha): 1 and 9 (2×) and 2 (2×) and 3 (2×) and 4
injury (0-9 point scale) ([2]; SDS-10990 AmtuPPX2L R128A_F420M, Sulfentrazone 350 g ai/ha): 3 (4×) and 4 (2×) and 9 (2×)
injury (0-9 point scale) ([2]; SDS-10990 AmtuPPX2L R128A_F420M, Sulfentrazone 700 g ai/ha): 3 and 4 (4×) and 9 (3×)
injury (0-9 point scale) ([2]; SDS-11034 AmtuPPX2L R128A_F420V, Sulfentrazone 350 g ai/ha): 1 (3×) and 3 (2×) and 9 and 0
injury (0-9 point scale) ([2]; wild type, Sulfentrazone 350 g ai/ha): 9 (5×) and 7 (2×) and 8

CS(=O)(=O)NC(=O)c1cc(Oc2ccc(C(F)(F)F)cc2Cl)ccc1[N+](=O)[O-] [Fomesafen, fomesafen]
Relative tolerance rate as compared to a non-transgenic Arabidopsis plant (non-transgenic = 1.0) [1, 3]: 18
Relative tolerance rate as compared to a non-transgenic Arabidopsis plant (non-transgenic = 1.0) [1, 4]: 23
Relative tolerance rate as compared to a non-transgenic Arabidopsis plant (non-transgenic = 1.0) [1, 5]: 29
Relative tolerance rate as compared to a non-transgenic Arabidopsis plant (non-transgenic = 1.0) [1, 6]: 29
Relative tolerance rate as compared to a non-transgenic Arabidopsis plant (non-transgenic = 1.0) [1, 7]: 29
Relative tolerance rate as compared to a non-transgenic Arabidopsis plant (non-transgenic = 1.0) ([1]; transgenic Arabidopsis AMATU_PPO2_R128A_F420M): 29
Relative tolerance rate as compared to a non-transgenic Arabidopsis plant (non-transgenic = 1.0) [1, 8]: 27
Relative tolerance rate as compared to a non-transgenic Arabidopsis plant (non-transgenic = 1.0) [1, 9]: 29
Relative tolerance rate as compared to a non-transgenic Arabidopsis plant (non-transgenic = 1.0) [1, 10]: 29
Relative tolerance rate as compared to a non-transgenic Arabidopsis plant (non-transgenic = 1.0) ([1]; transgenic Arabidopsis AMATU_PPO2_wt): 19
injury (0-9 point scale) ([2]; SDS10791 AmtuPPX2L R128A_F420I, Fomesafen 600 g ai/ha): 6 and 3 (2×) and 1 (3×) and 4 and 2
injury (0-9 point scale) ([2]; SDS-10642 AmtuPPX2L R128A_F420L, Fomesafen 600 g ai/ha): 0 (4×) and 1 (4×)
injury (0-9 point scale) ([2]; SDS-10648 AmtuPPX2L R128A_F420I, Fomesafen 600 g ai/ha): 5 and 3 (6×) and 4
injury (0-9 point scale) ([2]; SDS-10652 AmtuPPX2L L397D_F420V, Fomesafen 600 g ai/ha): 1 (2×) and 2 (2×) and 0 (3×) and 4
injury (0-9 point scale) ([2]; SDS-10787 AmtuPPX2L R128A_F420L, Fomesafen 600 g ai/ha): 1 (2×) and 0 (2×) and 2 (2×) and 5 and 3
injury (0-9 point scale) ([2]; SDS-10985 AmtuPPX2L R128A_F420M, Fomesafen 600 g ai/ha): 3 (3×) and 0 (2×) and 1 (2×) and 5
injury (0-9 point scale) ([2]; SDS-10990 AmtuPPX2L R128A_F420M, Fomesafen 600 g ai/ha): 1 (2×) and 3 and 0 (2×) and 4 and 5 (2×)
injury (0-9 point scale) ([2]; SDS-11034 AmtuPPX2L R128A_F420V, Fomesafen 600 g ai/ha): 2 (2×) and 0 (3×) and 1 (3×)
injury (0-9 point scale) ([2]; wild type, Fomesafen 600 g ai/ha): 5 (4×) and 4 (4×)
